Results as given in patent US10149809B2, “Skin aging inhibitor and concentrate of resveratrol 3-O-α-glucoside” (priority 2014, dated 2018).

What was measured:
[1] = tested on: matrix metalloproteinase 1 (MMP1) gene; experiment: MMP1 gene expression in normal human dermal fibroblasts; assay type: cell-based; settings: 0.001 wt %, 24 hours, control = 100%
Procedure: Using normal human dermal fibroblasts, the effect of resveratrol 3-O-α-glucoside on matrix metalloproteinase 1 (MMP1) and 9 (MMP9) genes in the dermis was investigated.
Normal human dermal fibroblasts were seeded into 12-well culture plates at 9×10^4 cells per well. As the medium, 10 vol % FBS (Fetal Bovine Serum)-containing DMEM medium (basal medium) was used, and the cells were preincubated in 5% CO2 at 37° C. for 24 hours. The medium was removed and then replaced with a basal medium supplemented with 0.001 wt % of resveratrol 3-O-α-glucoside, and the cells were cultured in 5% CO2 at 37° C. After 24 hours, total RNA was extracted from the cells, and the levels of expression of the MMP1 and MMP9 genes were quantified by real time PCR. As a control group, cells were cultured without resveratrol 3-O-α-glucoside, and total RNA collected from these cells was used.
Taking as 100% the level of expression of each of the MMP1 and MMP9 genes for the control group, a relative ratio of the expression level of each of the MMP1 and MMP9 genes for the resveratrol 3-O-α-glucoside-supplemented group (MMP1 and MMP9 gene expression ratios, %) was determined. In the measurement of the expression level of each of the MMP1 and MMP9 genes, GAPDH (glyceraldehyde 3-phosphate dehydrogenase) was used for internal standard correction.

[2] = DPPH radical scavenging effect; assay type: biochemical
Procedure: Resveratrol 3-O-α-glucoside was dissolved in water to a concentration of 100, 250, 500, or 1000 μmol/L, and the resulting solution was used as a sample solution.
In 10 mL of ethanol, 2 mg of 2,2-diphenyl-1-picrylhydrazyl (Wako Pure Chemical Industries, Ltd.) was dissolved, and the resulting solution was used as the DPPH solution.
Using each of the solutions prepared as above, the DPPH radical scavenging effect was evaluated in accordance with the following procedures. One-hundred microliters of the sample solution, 500 μL, of the DPPH solution, 250 μL of a […] MES (2-morpholinoethanesulfonic acid) buffer, and 150 μL of distilled water were mixed and reacted at 30° C. for 30 minutes. The absorbance at 517 nm was subsequently measured. Further, distilled water (control solution) was used instead of the sample solution, and the absorbance at 517 nm was measured under the same conditions as described above. From the measured value of absorbance, the DPPH radical scavenging ratio was determined in accordance with the equation shown below. DPPH radical scavenging ratio (%)=(A−B)/A×100 [Equation 2]

IL-1β gene = experiment: Reduction of inflammation through pretreatment: IL-1β gene expression, Poly I:C; assay type: cell-based; settings: normal human epidermal keratinocytes, pretreatment 0.001 wt % 24 hours, then Poly I:C 1 μg/mL 9 hours; control = 100%, comparative group 871
Procedure: Normal human epidermal keratinocytes were seeded into 12-well culture plates at 5×10^4 cells per well. As the medium, EpiLife KG-2 medium (basal medium) supplemented with insulin, hEGF, hydrocortisone, anti-microbial agents, and BPE was used, and the cells were preincubated in 5% CO2 at 37° C. for 48 hours. Further, the cells were incubated for additional 24 hours in a medium obtained by removing hydrocortisone only from the basal medium (assay medium). Next, the medium was replaced with a sample medium obtained by supplementing the assay medium with resveratrol 3-O-α-glucoside to a concentration of 0.001 wt %, the cells were cultured in 5% CO2 at 37° C. for 24 hours, and the cultured cells were pretreated with resveratrol 3-O-α-glucoside. […] After the medium was removed and the cells were washed with PBS, total RNA was extracted from the cells, and the level of expression of the proinflammatory cytokine IL-1β gene was quantified by real time PCR. […]
Taking as 100% the level of expression of the IL-1β gene for the control group, a relative ratio of the expression level of the IL-1β gene for each of the comparative group and the resveratrol 3-O-α-glucoside-supplemented group (IL-1β gene expression ratio, %) was calculated. […]

[3] = tested on: skin model (EPI-200X; MatTek); assay type: in vitro ADME, human
Procedure: Using a three-dimensional human skin model, permeabilities of resveratrol 3-O-α-glucoside and resveratrol into the skin model when administered via the skin surface were compared.
Resveratrol 3-O-α-glucoside or resveratrol (Tokyo Chemical Industry Co., Ltd.) was prepared into a 0.2 wt % solution or suspension with the addition of PBS, and the resulting solution was used as a test substance. The skin model (EPI-200X; MatTek) was loaded into a special fixture (EPI-100-FIX; MatTek), and placed in the 6-well plate of the receiver. One-hundred microliters of the test substance were added to the horny layer side, and 5 mL of PBS was added to the receiver side. After being allowed to stand at 37° C. for 20 hours, the skin model was collected, and the surface of the skin model was washed well with PBS. The skin model after being washed was homogenized in PBS. After the homogenate was centrifuged, resveratrols in the supernatant were quantified using HPLC under the same conditions as described in Production Example 1 above, and the amount of resveratrols was converted into the equivalent of agly cones.

[4] = Storage stability in 30 vol % aqueous ethanol (coloration, residual content); assay type: physicochemical; settings: 2 mM in 30 vol % aqueous ethanol, 40° C., light-tight, 6 months
Procedure: Each of resveratrol 3-O-α-glucoside (produced in Production Example 1), resveratrol (Tokyo Chemical Industry Co., Ltd.), and resveratrol 4′-O-α-glucoside (produced in Production Example 1) was dissolved in a 30 vol % aqueous solution of ethanol to a concentration of 2 mM, and the solution was stored at 40° C. under light-tight conditions. The coloration of the solution after being stored for 6 months was visually observed. Further, absorbances at 430 nm of the solution before and after the storage were measured, and the residual amount of each of the components in the solution was analyzed using HPLC. HPLC was performed under the same conditions as those described in Production Example 1.

[5] = SOD-like activity (SOD Test Wako kit); assay type: biochemical
Procedure: Resveratrol 3-O-α-glucoside was dissolved in a 15% ethanol solution to a concentration of 5, 10, or 20 mmol/L, and the resulting solution was used as a sample solution.
Using the sample solution prepared as above, the SOD-like activity was evaluated using an SOD measurement kit (SOD Test Wako; Wako Pure Chemical Industries, Ltd.).

tyrosinase = settings: Non-Patent Literatures 1 and 2; cited from earlier work

Row | Compound | MMP1 Gene Expression Ratio (%) [1] | DPPH Radical Scavenging Ratio (%) ([2]; 100 μmol/L in the sample solution) | DPPH Radical Scavenging Ratio (%) ([2]; 250 μmol/L in the sample solution) | DPPH Radical Scavenging Ratio (%) ([2]; 500 μmol/L in the sample solution) | DPPH Radical Scavenging Ratio (%) ([2]; 1000 μmol/L in the sample solution) | IL-1β Gene Expression Ratio (%) (IL-1β gene) | amount of permeation into the skin model relative to resveratrol [3] | Coloration: Difference between Absorbances at 430 nm (Δ A 430) before and after Storage [4] | Coloration: Visual Observation [4] | Residual Content (%) ([4]; HPLC) | SOD-Like Activity (%) ([5]; 5 mmol/L in the sample solution (15% ethanol)) | SOD-Like Activity (%) ([5]; 10 mmol/L in the sample solution (15% ethanol)) | SOD-Like Activity (%) ([5]; 20 mmol/L in the sample solution (15% ethanol)) | tyrosinase inhibitory effect compared to resveratrol (tyrosinase)
1 | OC[C@H]1O[C@H](Oc2cc(O)cc(C=Cc3ccc(O)cc3)c2)[C@H](O)[C@@H](O)[C@@H]1O [Resveratrol 3-O-α-Glucoside, resveratrol 3-O-α-glucoside] | 85% | 13% | 30% | 50% | 75% | 697% | 3.5 times | 0.03 | colorless | 93% | 18% | 35% | 47% | –
2 | OC[C@H]1O[C@@H](Oc2cc(O)cc(/C=C/c3ccc(O)cc3)c2)[C@H](O)[C@@H](O)[C@@H]1O [Resveratrol 3-O-β-Glucoside, resveratrol 3-O-β-glucoside] | – | – | – | – | – | – | – | – | – | – | – | – | – | inferior
